Earlier results as cited in patent US20070026383A1, “Methods and compositions for extracting membrane proteins” (Quintessence Biosciences, Inc., priority 2005, published 2007).

Key:
[1] = not given; remark: listed apart in the source

For `CCc1c2c(nc3ccc(O[C@@H]4O[C@H](C(=O)O)[C@@H](O)[C@H](O)[C@H]4O)cc13)-c1cc3c(c(=O)n1C2)COC(=O)[C@]3(O)CC` [SN-38G, 10-O-glucuronyl-SN-38], the activity of metabolite (glucuronide of SN-38) is given as “inactive”.
For `CCc1c2c(nc3ccc(OC(=O)N4CCC(N)CC4)cc13)-c1cc3c(c(=O)n1C2)COC(=O)[C@]3(O)CC` [NPC, 7-ethyl-10-(4-amino-1-piperidino)carbonyloxycamptothecin], the “antitumor activity in vitro” value [1] is listed as “weak antitumor activity”.
For `CCc1c2c(nc3ccc(O)cc13)-c1cc3c(c(=O)n1C2)COC(=O)[C@]3(O)CC` [SN-38, 7-ethyl-10-hydroxycamptothecin], the “fold higher antitumor activity than Irinotecan” value (relative to Irinotecan) is given as 100-1,000 fold.
In the case of `CCc1c2c(nc3ccc(OC(=O)N4CCC(NCCCCC(=O)O)CC4)cc13)-c1cc3c(c(=O)n1C2)COC(=O)C3(O)CC` (centres unmarked) [APC, 7-ethyl-10[4-N-(5-aminopentanoic acid)-1piperidino]carbonyloxycamptothecin], the “antitumor activity in vitro” value [1] is listed as “weak antitumor activity” and the “fold weaker antitumor activity compared with SN-38” value (relative to SN-38) is listed as 500 fold.
